Test system: CWR22RV1 cells
Assay: Inhibition of proliferation of CWR22RV1 cells (CCK-8)
Assay type: cell-based, human
Conditions: Homo sapiens, CWR22Rv1, 144 h, 6 days
Method: • CWR22RV1 cell line (Cell Bank of Chinese Academy of Sciences, TCHu100) • FBS (Gibco, Cat. No. 10099-141) • 0.01M PBS (Biosharp, Cat. No. 162262) • RIPM1640 (Hyclone, Cat. No. 308090.01) • Penicillin-Streptomycin (Hyclone, Cat. No. SV30010) • Cell counting kit-8 (Signalway Antibody, Cat. No. CP002) • DMSO (Sigma, Cat. No. D5879) • Centrifuge Tube, 15 ml (Excell Bio, Cat. No. CS015-0001) • Cell Culture Dish, (Excell Bio, Cat. No. CS016-0128) • 96-well cell culture cluster (Corning, Cat. No. 3599) • 2. Experimental method (1) Preparation of Buffer
1) CWR22RV1 cells were subcultured in cell culture medium, and the cells in good growth condition were seeded in a 96-well plate, 80 μL for each well, thus the number of cells per well was 1500, then the plate was cultured overnight in a 37° C., 5% CO2 cell incubator.
2) The drug was prepared with dimethyl sulfoxide (DMSO) as a 30 mM stock solution. Prior to use, the solution was diluted 3 times with DMSO, and then diluted with a 3-fold gradient to obtain 9 concentration gradients. Then, each concentration of the compound was further diluted 200 times with the culture solution (to ensure that DMSO concentration in the culture system was 0.1%), 2 repeat wells for each concentration. The diluted solution of each compound (20 μL) was added to the cell culture well (with a final concentration of 10 μM, 3.3 μM, 1.1 μM . . . ), and shaken gently for mixing. In addition, three negative control wells containing only cells and three blank control wells containing only culture medium (20 μL DMSO diluted 200 times with culture medium being added to six wells) were included.
(1) After culturing for 6 days, 10 μL CCK-8 was added to each well and cultured for additional 2.5 h in a 37° C., 5% CO2 cell incubator.
(2) The absorbance (OD value) at 450 nm was measured with a multifunctional microplate reader.
(3) The data was analyzed by the Dose-response-inhibition equation in the software GraphPad Prism6, and the IC50 value was obtained.

Structure (SMILES)	IC50 [nM]
Cn1cc(-c2cc(S(C)(=O)=O)ccc2N2CCC3(CC2)CC3C(=O)O)c2cc[nH]c2c1=O (stereo not shown) [Compound 39, 6-(2-(6-methyl-7-oxo-6,7-dihydro-1H-pyrrolo[2,3-c]pyridin-4-yl)-4-(methylsulfonyl)phenyl)-6-aza-spiro[2.5]octan-1-carboxylic acid]	2410
[2H]C([2H])([2H])n1cc(-c2cc(NS(=O)(=O)CC)ccc2N2CCC3(CC3)C2)c2cc[nH]c2c1=O [Compound 40, N-(3-(7-oxo-6-(trideuteromethyl)-6,7-dihydro-1H-pyrrolo[2,3-c]pyridin-4-yl)-4-(5-aza-spiro[2.4]heptan-5-yl)phenyl)ethylsulfonamide]	15
[2H]C([2H])([2H])n1cc(-c2cc(NS(=O)(=O)CC)ccc2N2CCCC3(CC3)C2)c2cc[nH]c2c1=O [Compound 42, N-(3-(6-trideuteromethyl-7-oxo-6,7-dihydro-1H-pyrrolo[2,3-c]pyridin-4-yl)-4-(5-aza-spiro[2.5]octan-5-yl)phenyl)ethylsulfonamide]	30
[2H]C([2H])([2H])n1cc(-c2cc(NS(=O)(=O)C3CC3)ccc2N2CC3(CCC3)C2)c2cc[nH]c2c1=O [Compound 43, N-(3-(6-trideuteromethyl-7-oxo-6,7-dihydro-1H-pyrrolo[2,3-c]pyridin-4-yl)-4-(2-aza-spiro[3.3]heptan-2-yl)phenyl)cyclopropanesulfonamide]	50
[2H]C([2H])([2H])n1cc(-c2cc(NS(C)(=O)=O)ccc2N2CC3(CCC3)C2)c2cc[nH]c2c1=O [Compound 44, N-(3-(6-trideuteromethyl-7-oxo-6,7-dihydro-1H-pyrrolo[2,3-c]pyridin-4-yl)-4-(2-aza-spiro[3.3]heptan-2-yl)phenyl)methanesulfonamide]	45
[2H]C([2H])([2H])n1cc(-c2cc(NS(=O)(=O)C3COC3)ccc2N2CC3(CCC3)C2)c2cc[nH]c2c1=O [Compound 45, N-(3-(6-trideuteromethyl-7-oxo-6,7-dihydro-1H-pyrrolo[2,3-c]pyridin-4-yl)-4-(2-aza-spiro[3.3]heptan-2-yl)phenyl) oxetane-3-sulfonamide]	110
[2H]C([2H])([2H])n1cc(-c2cc(NS(=O)(=O)CCCC)ccc2N2CC3(CCC3)C2)c2cc[nH]c2c1=O [Compound 46, N-(3-(6-trideuteromethyl-7-oxo-6,7-dihydro-1H-pyrrolo[2,3-c]pyridin-4-yl)-4-(2-aza-spiro[3.3]heptan-2-yl)phenyl)butane-1-sulfonamide]	130
[2H]C([2H])([2H])n1cc(-c2cc(NS(=O)(=O)CC)ccc2N2CC3(CCC3)C2)c2cc[nH]c2c1=O [Compound 47, N-(3-(6-trideuteromethyl-7-oxo-6,7-dihydro-1H-pyrrolo[2,3-c]pyridin-4-yl)-4-(2-aza-spiro[3.3]heptan-2-yl)phenyl)ethanesulfonamide]	50
[2H]C([2H])([2H])n1cc(-c2cc(NS(C)(=O)=O)ccc2N2CC3(COC3)C2)c2cc[nH]c2c1=O [Compound 48, N-(3-(6-trideuteromethyl-7-oxo-6,7-dihydro-1H-pyrrolo[2,3-c]pyridin-4-yl)-4-(2-oxa-6-aza-spiro[3.3]heptan-6-yl)phenyl)methanesulfonamide]	400
[2H]C([2H])([2H])n1cc(-c2cc(NS(=O)(=O)CC)ccc2N2CC3(COC3)C2)c2cc[nH]c2c1=O [Compound 49, N-(3-(6-trideuteromethyl-7-oxo-6,7-dihydro-1H-pyrrolo[2,3-c]pyridin-4-yl)-4-(2-oxa-6-aza-spiro[3.3]heptan-6-yl)phenyl)ethanesulfonamide]	420
[2H]C([2H])([2H])n1cc(-c2cc(NS(=O)(=O)CCCC)ccc2N2CC3(COC3)C2)c2cc[nH]c2c1=O [Compound 50, N-(3-(6-trideuteromethyl-7-oxo-6,7-dihydro-1H-pyrrolo[2,3-c]pyridin-4-yl)-4-(2-oxa-6-aza-spiro[3.3]heptan-6-yl)phenyl) butane-1-sulfonamide]	510
[2H]C([2H])([2H])n1cc(-c2cc(NS(=O)(=O)C3CC3)ccc2N2CC3(COC3)C2)c2cc[nH]c2c1=O [Compound 51, N-(3-(6-trideuteromethyl-7-oxo-6,7-dihydro-1H-pyrrolo[2,3-c]pyridin-4-yl)-4-(2-oxa-6-aza-spiro[3.3]heptan-6-yl)phenyl) cyclopropanesulfonamide]	490
[2H]C([2H])([2H])n1cc(-c2cc(NS(=O)(=O)CC)ccc2N2CCC3(CC2)CC3C(=O)OCC)c2cc[nH]c2c1=O (stereo not shown) [Compound 52]	520
[2H]C([2H])([2H])n1cc(-c2cc(NS(=O)(=O)CC)ccc2N2CCC3(CC2)CC3C(=O)O)c2cc[nH]c2c1=O (stereo not shown) [Compound 53, 6-(4-(ethylsulfonamide)-2-(6-trideuteromethyl-7-oxo-6,7-dihydro-1H-pyrrolo[2,3-c]pyridin-4-yl)phenyl)-6-aza-spiro[2.5]octan-1-carboxylic acid]	550
[2H]C([2H])([2H])n1cc(-c2cc(S(C)(=O)=O)ccc2N2CCC3(CC3)C2)c2cc[nH]c2c1=O [Compound 54, 6-trideuteromethyl-4-(5(methylsulfonyl)-2-(5-aza-spiro[2.4]heptan-5-yl)phenyl)-1H-pyrrolo[2,3-c]pyridin-7(6H)-one]	18
[2H]C([2H])([2H])n1cc(-c2cc(S(C)(=O)=O)ccc2N2CCCC3(CC3)C2)c2cc[nH]c2c1=O [Compound 57, 6-trideuteromethyl-4-(5(methylsulfonyl)-2-(5-aza-spiro[2.5]octan-5-yl)phenyl)-1H-pyrrolo[2,3-c]pyridin-7(6H)-one]	25
[2H]C([2H])([2H])n1cc(-c2cc(S(=O)(=O)C3CC3)ccc2N2CCCC3(CC3)C2)c2cc[nH]c2c1=O [Compound 58, 4-(5-(cyclopropylsulfonyl)-2-(5-aza-spiro[2.5]octan-5-yl)phenyl)-6-trideuteromethyl-1H-pyrrolo[2,3-c]pyridin-7(6H)-one]	50
[2H]C([2H])([2H])n1cc(-c2cc(S(=O)(=O)C3CC3)ccc2N2CC3(CCC3)C2)c2cc[nH]c2c1=O [Compound 59, 4-(5-(cyclopropylsulfonyl)-2-(2-aza-spiro[3.3]heptan-2-yl)phenyl)-6-trideuteromethyl-1H-pyrrolo[2,3-c]pyridin-7(6H)-one]	65
[2H]C([2H])([2H])n1cc(-c2cc(S(C)(=O)=O)ccc2N2CC3(CCC3)C2)c2cc[nH]c2c1=O [Compound 60, 6-trideuteromethyl-4-(5-(methylsulfonyl)-2-(2-aza-spiro[3.3]heptan-2-yl)phenyl)-1H-pyrrolo[2,3-c]pyridin-7(6H)-one]	39
[2H]C([2H])([2H])n1cc(-c2cc(S(=O)(=O)C3COC3)ccc2N2CC3(CCC3)C2)c2cc[nH]c2c1=O [Compound 61, 6-trideuteromethyl-4-(5-(oxetane-3-ylsulfonyl)-2-(2-aza-spiro [3.3]heptan-2-yl)phenyl)-1H-pyrrolo[2,3-c]pyridin-7(6H)-one]	105
[2H]C([2H])([2H])n1cc(-c2cc(S(=O)(=O)CCCC)ccc2N2CC3(CCC3)C2)c2cc[nH]c2c1=O [Compound 62]	130
[2H]C([2H])([2H])n1cc(-c2cc(S(=O)(=O)CC)ccc2N2CC3(CCC3)C2)c2cc[nH]c2c1=O [Compound 63, 4-(5-(ethylsulfonyl)-2-(2-aza-spiro[3.3]heptan-2-yl)phenyl)-6-trideuteromethyl-1H-pyrrolo[2,3-c]pyridin-7(6H)-one]	60
